Experimental data reported in publication PMC3653412 (European journal of pharmacology, 2012).

Biological target: complex I (NADH:ubiquinone oxidoreductase) (Rattus norvegicus, UniProt A6K8N6+P03889+Q641Y2)
Experiment: oxygen consumption of isolated mitochondria, Clark electrode
Type: biochemical
Conditions: read-out: % inhibition at 0.5 mM

**Q.** For FC(F)OC(Cl)C(F)(F)F (stereo not shown) [isoflurane], which inhibition at 500 µM is on record?
**A.** 28 ± 10%
